This is an account of results in ChEMBL document CHEMBL5465560, “Selectivity Literature for EUbOPEN Chemogenomic Library” (2024).

In assay [1] the target is T1, cGMP-dependent protein kinase 2 (Homo sapiens) (UniProt Q13237).
T1 sequence (whole entry): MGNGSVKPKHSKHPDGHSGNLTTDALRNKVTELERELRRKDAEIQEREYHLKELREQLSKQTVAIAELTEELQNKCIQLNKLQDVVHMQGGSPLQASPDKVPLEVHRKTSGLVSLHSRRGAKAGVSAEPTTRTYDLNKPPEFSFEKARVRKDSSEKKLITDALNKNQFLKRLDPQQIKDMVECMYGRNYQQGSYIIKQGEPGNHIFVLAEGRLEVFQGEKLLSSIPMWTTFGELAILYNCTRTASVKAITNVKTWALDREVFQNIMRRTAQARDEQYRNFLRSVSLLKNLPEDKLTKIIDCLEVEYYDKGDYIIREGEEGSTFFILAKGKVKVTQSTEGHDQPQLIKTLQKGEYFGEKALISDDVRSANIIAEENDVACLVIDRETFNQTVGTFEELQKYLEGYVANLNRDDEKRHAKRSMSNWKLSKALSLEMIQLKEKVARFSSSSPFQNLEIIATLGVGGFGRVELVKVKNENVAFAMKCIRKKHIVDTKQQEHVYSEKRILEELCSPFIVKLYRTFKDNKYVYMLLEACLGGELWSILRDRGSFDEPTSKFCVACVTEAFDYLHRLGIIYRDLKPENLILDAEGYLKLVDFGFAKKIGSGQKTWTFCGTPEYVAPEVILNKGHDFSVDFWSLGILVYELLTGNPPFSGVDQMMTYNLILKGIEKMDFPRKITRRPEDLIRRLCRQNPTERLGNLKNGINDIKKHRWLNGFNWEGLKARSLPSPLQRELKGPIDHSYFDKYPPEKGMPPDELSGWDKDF
The settings on record: at 10 µM.

The target of assay [2] is T2, Serine/threonine-protein kinase Nek9 (Homo sapiens) (UniProt Q8TD19).
T2 sequence (whole entry): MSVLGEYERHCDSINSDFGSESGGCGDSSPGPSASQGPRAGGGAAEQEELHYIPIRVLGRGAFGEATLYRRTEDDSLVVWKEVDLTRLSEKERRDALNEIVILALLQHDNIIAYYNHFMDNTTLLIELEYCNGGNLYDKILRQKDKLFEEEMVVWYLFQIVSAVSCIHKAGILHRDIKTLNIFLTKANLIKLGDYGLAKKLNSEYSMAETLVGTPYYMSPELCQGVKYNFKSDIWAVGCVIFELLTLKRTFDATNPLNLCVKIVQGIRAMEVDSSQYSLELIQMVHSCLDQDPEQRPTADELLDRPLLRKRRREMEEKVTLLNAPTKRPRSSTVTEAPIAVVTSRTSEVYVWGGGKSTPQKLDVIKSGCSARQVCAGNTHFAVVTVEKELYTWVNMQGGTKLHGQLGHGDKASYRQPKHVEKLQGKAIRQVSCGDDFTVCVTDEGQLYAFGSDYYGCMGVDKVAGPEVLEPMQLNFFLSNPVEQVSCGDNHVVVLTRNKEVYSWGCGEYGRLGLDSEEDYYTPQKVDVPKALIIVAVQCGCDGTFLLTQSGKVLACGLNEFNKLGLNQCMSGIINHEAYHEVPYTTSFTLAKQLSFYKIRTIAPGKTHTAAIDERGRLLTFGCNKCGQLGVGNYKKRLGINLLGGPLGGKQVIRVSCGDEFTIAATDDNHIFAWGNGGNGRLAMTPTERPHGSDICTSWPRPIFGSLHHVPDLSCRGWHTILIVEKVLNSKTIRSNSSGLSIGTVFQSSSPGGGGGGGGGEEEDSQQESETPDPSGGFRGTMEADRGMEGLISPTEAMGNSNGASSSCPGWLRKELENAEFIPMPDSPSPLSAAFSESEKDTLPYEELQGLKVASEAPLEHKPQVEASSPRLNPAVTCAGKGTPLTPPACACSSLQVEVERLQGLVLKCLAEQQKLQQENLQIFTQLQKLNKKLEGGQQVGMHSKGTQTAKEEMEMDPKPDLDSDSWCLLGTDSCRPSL
Kind of assay: Selectivity interaction (KinomeScan (DiscoverX)) EUB0000045b NEK9.

Assay [3] addresses T3, Serine/threonine-protein kinase 3 (Homo sapiens) (UniProt Q13188).
T3 sequence (whole entry): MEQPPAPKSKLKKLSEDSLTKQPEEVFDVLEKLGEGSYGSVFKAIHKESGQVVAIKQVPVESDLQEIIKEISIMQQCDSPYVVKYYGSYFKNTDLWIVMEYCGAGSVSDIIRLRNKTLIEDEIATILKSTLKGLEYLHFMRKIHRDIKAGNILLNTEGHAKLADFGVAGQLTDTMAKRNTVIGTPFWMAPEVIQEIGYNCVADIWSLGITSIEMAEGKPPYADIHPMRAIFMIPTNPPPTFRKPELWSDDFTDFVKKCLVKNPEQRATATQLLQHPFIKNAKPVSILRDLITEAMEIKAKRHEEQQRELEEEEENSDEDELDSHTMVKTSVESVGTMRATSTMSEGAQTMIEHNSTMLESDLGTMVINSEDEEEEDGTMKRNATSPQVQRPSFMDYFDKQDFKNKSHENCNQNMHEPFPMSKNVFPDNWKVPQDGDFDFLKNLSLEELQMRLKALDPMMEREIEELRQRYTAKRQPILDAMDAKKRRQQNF
Kind of assay: Selectivity interaction (KinomeScan (DiscoverX)) EUB0000607a STK3. Conditions: at 10 µM.

In assay [4] the target is Protein-tyrosine kinase 2-beta (Homo sapiens) (UniProt Q14289). Kind of assay: Selectivity interaction (KinomeScan (DiscoverX)) EUB0001619a PTK2B. The settings on record: at 1 µM.
Sequence of Protein-tyrosine kinase 2-beta (Homo sapiens) (Q14289 whole entry, looked up): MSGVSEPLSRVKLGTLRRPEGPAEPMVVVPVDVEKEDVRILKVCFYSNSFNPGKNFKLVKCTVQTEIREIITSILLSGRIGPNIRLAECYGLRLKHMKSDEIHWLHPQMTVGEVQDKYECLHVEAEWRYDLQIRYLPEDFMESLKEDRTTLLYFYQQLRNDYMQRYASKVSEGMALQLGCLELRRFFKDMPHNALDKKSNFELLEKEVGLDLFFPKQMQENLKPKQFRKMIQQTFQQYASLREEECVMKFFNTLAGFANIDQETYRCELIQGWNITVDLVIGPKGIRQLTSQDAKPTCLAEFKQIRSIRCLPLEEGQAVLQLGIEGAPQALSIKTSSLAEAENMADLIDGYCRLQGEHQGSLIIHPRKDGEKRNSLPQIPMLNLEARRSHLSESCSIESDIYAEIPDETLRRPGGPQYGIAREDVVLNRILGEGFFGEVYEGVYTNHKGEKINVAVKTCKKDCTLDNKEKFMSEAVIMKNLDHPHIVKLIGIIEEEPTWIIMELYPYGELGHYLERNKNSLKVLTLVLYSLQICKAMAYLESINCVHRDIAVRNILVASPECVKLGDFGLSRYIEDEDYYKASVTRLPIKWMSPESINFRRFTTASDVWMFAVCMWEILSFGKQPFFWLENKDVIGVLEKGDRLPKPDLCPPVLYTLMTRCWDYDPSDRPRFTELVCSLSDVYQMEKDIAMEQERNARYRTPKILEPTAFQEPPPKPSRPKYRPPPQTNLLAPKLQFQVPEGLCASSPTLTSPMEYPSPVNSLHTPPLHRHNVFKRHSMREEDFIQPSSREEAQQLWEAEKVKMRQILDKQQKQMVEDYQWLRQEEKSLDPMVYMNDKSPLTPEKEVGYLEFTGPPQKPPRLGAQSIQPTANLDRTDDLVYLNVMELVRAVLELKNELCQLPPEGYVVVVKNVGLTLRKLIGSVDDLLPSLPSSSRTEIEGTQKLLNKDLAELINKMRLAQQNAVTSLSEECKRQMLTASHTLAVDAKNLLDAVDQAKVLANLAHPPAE

As for `Cc1cc([C@@H](C)Nc2ccccc2C(=O)O)c2nc(N3CCOCC3)cc(=O)n2c1` [AZD-6482], in assay [1], the % of control was 98%. Turning to `C=CC(=O)Nc1cc(-n2c(=O)ccc3cnc4ccc(-c5ccc(NS(C)(=O)=O)cc5)cc4c32)ccc1C`, the % of control in assay [2] (at 1 µM) worked out at 100%; in assay [2] (at 10 µM), 65%.

Regarding `CNC(=O)Nc1ccc(-c2nc(N3CC4CCC(C3)O4)c3cnn(C4CCC5(CC4)OCCO5)c3n2)cc1`, in assay [3], the % of control turned out to be 97%.

`N#Cc1cccc(-c2c[nH]c3ncnc(N4CCOCC4)c23)c1` had a % of control in assay [4] of 100%.
